Legend:
HepG2 cells = assay: Confocal microscopy: lipid droplets in oleate induced HepG2 cells; assay type: cell-based; parameters: key to Reduction in Lipid Droplets: + = slight or in insignificant; ++ = Moderate; +++ and ++++ = active; +++ and ++++ = active; +++++ = very active; conditions: for Reduction in Lipid Droplets: oleate induced HepG2 cells, score
Procedure: To select the compounds capable of inhibiting the ubiquitination of ATGL by COP1 by targeting the VP motif, confocal microscopy was performed with the provided molecules. If the compound was effective in inhibiting the interaction, there would be a reduction in the number of fat droplets in the cells after treatment. […] With this rationale in mind, HepG2 cells were induced to accumulate lipid droplets after treatment with 250 µM of oleate and 10 μM of the specific compounds were added. The potential of the compounds to bring about a reduction in the number of fat droplets was then checked by comparison with oleate induced cells by counting number of droplets of approximately 20 cells from each treatment and calculating the average number of lipid droplets of each cell. The selected compounds were then subjected to dose dependent treatments and the ones which could maintain its potency to reduce fat droplets at lower doses were then selected for western blot analysis. The compound which could reduce the number of fat droplets in the cells are expected to raise the levels of ATGL since they are likely to deter COP1 from ubiquitinating ATGL. This increase will be visible only in the protein level and gene expression is likely to remain unchanged since ubiquitination is a […] modification. Thus, western blot was performed to check ATGL levels in the cells with the selected molecules.
HepG2 cells were plated in confocal dishes (SPL, Genetix Biotech Asia Pvt. Ltd.). The cells were allowed to adhere and divide for 16 hours. 10 μM for initial screening and 10 nM, 20 nM, 50 nM, 100 nM, 200 nM, 500 nM, 1 μM and 5 μM for dose dependent assays of the compounds 9 and 107 were dissolved in DMSO and added to the cells. 250 μM of oleate was used for induction. BSA (Sigma Aldrich) was used as a negative control. Post 24 hours of treatment, media was decanted from the cells and washed with 1×PBS solution to remove any remnant. 200 μl of staining solution containing 200 ng/ml BODIPY (Invitrogen) and 25 µg/ml HOECKST342 (Invitrogen) were added to the cells and incubated at 37° C. for 30 minutes under dark conditions. Cells were washed 3 times with 1×PBS to remove excess stain. FLUOVIEW FV10i (Olympus) was used to visualise the cells.

ATGL = assay: Western blot of ATGL level in HepG2 cells; assay type: cell-based; parameters: key to Increase in ATGL level: + = slight or in insignificant; ++ = Moderate; +++ and ++++ = active; +++ and ++++ = active; +++++ = very active; conditions: for Increase in ATGL level: HepG2 cells, score; for Increase in ATGL level / ATGL level in HepG2 cells: western blot; for ATGL level in HepG2 cells: 24 hours, 10 μM screening or 50 nM-5 μM dose dependent
Summary of the method: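 HepG2 cells were treated with compound 24 h (10 μM screen; 50 nM–5 μM dose series) and lysed. 30 μg protein was western blotted for ATGL, with actin as loading reference. ATGL increase was expressed as percent of the 1.6-fold siCOP1 maximum and plotted against log concentration for EC50.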

[1] = Lipophilicity assay (octanol/buffer); assay type: physicochemical; conditions: for logD / LogD @ pH 7.4: n-octanol / 10 mM sodium phosphate buffer pH 7.4, LC-UV; for Lipophilicity class from Log D: pH 7.4
Procedure: 1.56 g NaH2PO4·2H2O was dissolved in 0.5 L water in a 1 L beaker. After adjusting pH to 7.4 using NaOH solution, the volume was made up to 1 L. Equal volumes of sodium phosphate buffer (10 mM, pH 7.4) and n-octanol were added to a separation funnel and mixed thoroughly by shaking and inverting the funnel several times. The two layers were allowed to separate for overnight and then dispensed in two separate glass bottles. 10 mM stock solution was prepared in 100% DMSO and stored at 4° C. 495 μL of organic phase (1-octanol) was added to each well of a 2 mL deep well plate, followed by 495 μL of buffer and 10 μL of test compound was added. The plate was incubated for 3 hr at room temperature on a plate shaker at 500 rpm. After incubation, the samples were allowed to equilibrate for 20 min and then centrifuged at 4000 rpm for 30 min for complete phase separation and analysed by LC-UV.
Log D=Log (area of octanol/area of buffer)

Plasma stability assay = assay type: in vitro ADME, human; conditions: for Mean % remaining at 2 hrs in human Plasma: 1 μM, 37° C., 120 min, LC-MS/MS; for Plasma stability: human plasma, after 2 hours, with respect to Propantheline
Procedure: 1 mM Stock of test compound was prepared from 10 mM initial stock solution of compounds by diluting 10 μL of 10 mM stock with 90 μL of DMSO. Then 10 μL of 1 mM stock was diluted with 90 µL of DMSO to give 100 μM concentration. The frozen plasma was thawed at room temperature and centrifuged at 1400 rpm at 4° C., for 15 minutes. Approximately […] of the clear supernatant fraction was transferred to a separate tube and was used for the assay. Final working stock of 1 μM was prepared by diluting 3 μL of 100 μM with 297 μL of plasma. Plasma containing the test compound was incubated for 120 min at 37° C. in shaker with 500 rpm. 50 μL of aliquot of sample at 0, 15, 30, 60 and 120 minutes were precipitated with 150 μL of acetonitrile containing internal standard and centrifuged at 4000 rpm at 4° C. for 20 minutes. 120 μL of supernatant was diluted with 120 μL of water and analyzed by LC-MS/MS.

[2] = Metabolic stability using Human Liver Microsomes; assay type: in vitro ADME; conditions: for % QH (Well stirred model): NADPH, 0-60 min
Procedure: 1 mM stock solution of test compound was prepared in DMSO and diluted with Acetonitrile:Water (1:1) to get a 100 μM working concentration. 100 mL of Milli Q water was added to K2HPO4 (1.398 g) and KH2PO4 (0.27 g) to get final pH 7.4 solution of potassium phosphate buffer. […] The above mixture was pre incubated for 15 minutes at 37° C. After pre incubation, 32.5 μL of the mixture was added to 17.5 μL of buffer, this was incubated for 60 minutes at 37° C. [60 min Without Cofactor (NADPH)]. 16.25 μL of the pre incubated mixture and 8.75 μL of cofactor was added to 150 μL of acetonitrile containing internal standard [0 min Sample]. 62 μL of cofactor was added to remaining pre incubation mixture [Incubation mixture]. 25 μL of incubation mixture at 0, 5, 15, 30, 60 min and 60 min without cofactor were precipitated with 150 μL of acetonitrile containing internal standard, vortexed and centrifuged at 4000 rpm at 4° C. for 20 minutes. 120 μL of supernatant was diluted with 120 μL of water and analyzed by LC-MS/MS [sample preparation].

logD [1]	Lipophilicity class from Log D [1]	Mean % remaining at 2 hrs in human Plasma (Plasma stability assay)	Plasma stability (Plasma stability assay)	Clearance class from % QH [2]	% QH (Well stirred model) [2]	SMILES	Reduction in Lipid Droplets (HepG2 cells)	Increase in ATGL level (ATGL)	ATGL level in HepG2 cells (ATGL)	also measured
0.84	hydrophilic	48.5%	good plasma stability	–	–	COCCn1c(C2CCCCC2)nc2ccc(NC(=O)Nc3cccc(C(C)=O)c3)cc2c1=O [Compound 123, 1-(3-acetylphenyl)-3-(2-cyclohexyl-3-(2-methoxyethyl)-4-oxo-3,4-dihydroquinazolin-6-yl)urea]	+++	++++	increased ATGL level	–
–	–	–	–	–	–	CCCCn1cnc2ccc(NC(=O)Nc3cccc(C(C)=O)c3)cc2c1=O [Compound 175, 1-(3-acetylphenyl)-3-(3-butyl-4-oxo-3,4-dihydroquinazolin-6-yl)urea]	+	+	did not increase ATGL level	Number of lipid droplets (HepG2 cells; HepG2 cells, 250 μM oleate induction): reduced lipid droplets
–	–	–	–	–	–	COCCn1cnc2cc(NC(=O)Nc3cccc(C(C)=O)c3)ccc2c1=O [Compound 192, 1-(3-acetylphenyl)-3-(3-(2-methoxyethyl)-4-oxo-3,4-dihydroquinazolin-7-yl)urea]	++	+++	–	–
–	–	–	–	–	–	COCCn1cnc2cc(NC(=O)Nc3ccc(C(C)=O)cc3)ccc2c1=O [Compound 193, 1-(4-acetylphenyl)-3-(3-(2-methoxyethyl)-4-oxo-3,4-dihydroquinazolin-7-yl)urea]	+	+	–	–
2.48	ideal lipophilicity	110.3%	good plasma stability	medium clearance	38.8%	COCCn1c(-c2ccccn2)nc2ccc(NC(=O)Nc3cccc(C(C)=O)c3)cc2c1=O [Compound 211, 1-(3-acetylphenyl)-3-(3-(2-methoxyethyl)-4-oxo-2-(pyridin-2-yl)-3,4-dihydroquinazolin-6-yl)urea]	–	–	increased ATGL level	EC50 (ATGL; fold increase of ATGL by densitometry, as % of 1.6 fold maximum with siCOP1, doses 10-5000 nM, read-out: EC50 (in-vitro)): 199 nM
3.01	ideal lipophilicity	67.2%	good plasma stability	lower clearance	29.8%	CC(=O)c1cccc(NC(=O)Nc2ccc3ncn(CC(=O)Nc4ccccc4F)c(=O)c3c2)c1 [Compound 253, 2-(6-(3-(3-acetylphenyl)ureido)-4-oxoquinazolin-3 (4H)-yl)-N-(2-fluorophenyl)acetamide]	++	+	–	–
1.79	ideal lipophilicity	45.8%	good plasma stability	lower clearance	26.0%	COCCn1c(C(=O)N2CCCCC2)nc2ccc(NC(=O)Nc3cccc(C(C)=O)c3)cc2c1=O [Compound 330a, 1-(3-acetylphenyl)-3-(3-(2-methoxyethyl)-4-oxo-2-(piperidine-1-carbonyl)-3,4-dihydroquinazolin-6-yl)urea]	–	–	–	–
–	–	–	–	–	–	COCCc1ccc(OCC(O)CNC(C)C)cc1 (stereo not shown) [Metroprolol, reference compound]	–	–	–	LogD @ pH 7.4 [1]: −0.09
–	–	1.7%	–	–	–	CC(C)[N+](C)(CCOC(=O)C1c2ccccc2Oc2ccccc21)C(C)C [Propantheline, reference compound]	–	–	–	–
–	–	–	–	–	–	O=c1c(O)c(-c2ccc(O)c(O)c2)oc2cc(O)cc(O)c12 [Quercetin, reference compound]	–	–	–	LogD @ pH 7.4 [1]: 2.81

— patent US12528777B2, “Quinazolinones derivatives for treatment of non-alcoholic fatty liver disease, preparation and use thereof” (Council of Scientific and Industrial Research, priority 2020, dated 2026)
